Results as given in US8158850B2, “Method to enhance yield and purity of hybrid crops” (priority 2007, dated 2012).
Values joined by “and” are separate entries in the source; they are usually repeats but may differ in a detail not shown here. Identical values can stand only once.

Assays:
Format in all cases: in vivo, corn (Zea mays)
[1] = system: hybrid seed production field, GHS1 or GHS2 female parent with MON88017 or nk603 male parent; test: Yield of the hybrid seed harvested from female rows of glyphosate-treated GHS fields; conditions: for average yield of hybrid seed: GHS1 or GHS2 female, glyphosate V8 and V10 at 22 oz/ac, CMS-nk603 comparator yield 29.05 kg; for Average Wt (kg), yield of the hybrid seed: glyphosate treated V8-V10; for Total wt (KG), yield of the hybrid seed: glyphosate treated V8-V10 (22 oz/ac), seed harvested from female rows
Procedure: The yield of hybrid seed is important for maintaining profitability in hybrid seed production systems. […] GHS1 and GHS2 are used as the female parent in a hybrid seed production field with MON88017 or nk603 as the male parent. The GHS fields were treated with glyphosate (V8 and V10 at 22 oz/ac) and the seed harvested from the female rows. […] The average yield is 29.72 kilograms (kg) and 33.39 kg, respectively compared to the CMS-nk603 yield of 29.05 kg.

[2] = system: transgenic corn event GHS3 (LH198 germplasm crossed to LH287); test: Percent anther extrusion (AE %) at silk emergence after glyphosate treatment, field split plot test; conditions: Event GHS-3
From the text: (§1) Corn plants transformed with the DNA construct are produced and unique events that have the desired glyphosate tolerance phenotype are selected by treatment with glyphosate a various growth stages and at various rates of glyphosate. Optimal tassel and anther sensitivity to glyphosate can be determined by treatment with an effective dose of glyphosate during corn plant growth and then measuring the pollen shed or anther extrusion. Rapidly maturing corn inbred lines may have early tassel development and glyphosate treatments and rates can be adjusted as needed to produce male sterility in these inbred lines. Transgenic events for the glyphosate hybrid system were designated as event GHS1, GHS2 and GHS3, and selected by various glyphosate treatments to determine the rates and timing of glyphosate that provide the desired level of male sterility as measured by percent anther extrusion. Glyphosate was applied to a field containing the events using the following parameters: • Nozzle: Tee Jet Air Induction (AI) 110015-VS broadcast (green plus green adaptor) spaced on 30″ centers • GPA: 10-12 gallons per acre (GPA) • PSI: 30-35 pounds per square inch • Speed: 2-2.5 MPH • Nozzle Height: 16-18″ above “cup” of the whorl • Useful Conversions:
(§2) • Roundup Ultra®=3 lb acid equivalent (ae)/gal or 32 oz=0.75 lb ae/[…] • Roundup WeatherMax®—22 oz/acre=0.75 lb ae/acre • Nozzle calibration: Determine GPM (gallon per minute) output—Select nozzles and set PSI as specified above. Insure screens are all the same style and size. Collect output (30 sec minimum) of every nozzle at engine operating RPM equivalent to field conditions. Replicate 3 times for consistency and replace any nozzle with greater than +5% variation compared to other nozzles. Repeat until all nozzles are consistent. • Tractor speed—Determine sprayer speed in mph at above spray RPM. Measure off known distance (i.e. 100′) and measure 3 times for consistency. • Calibration of application equipment—The following formula was used to calculate spray output in GPA: GPA=5940×GPM (per nozzle), MPH×W; wherein W=Nozzle spacing (in inches) for broadcast spraying.
(§3) Transgenic events GHS1, GHS2, and GHS3 were treated with one or two applications of glyphosate (Roundup WeatherMax®) over the corn development stages V8-V12 (vegetative 8 leaf—vegetative 12 leaf). These development stages also correlate with pollen development in most inbred corn varieties. In this example, the transgenic events are in an LH198 germplasm crossed to LH287. The fertility score is a measure of the percent risk of anther extrusion (AE) observed at the time of silk emergence from the corn ear. The three events and a LH198DMSRR2 control (CMS germplasm with glyphosate tolerance) were treated with six glyphosate treatments (Table 4). The glyphosate treatments are single applications of 0.75 lb ae/ac at V8 stage (Trt 1), 0.75 lb ae/ac at V10 stage (Trt 2) and 0.54 lb ae/ac at V12 stage (Trt 3), and double applications of 0.75 lb ae/ac at V8 followed by 0.54 lb ae/ac at V12 (Trt 4), 0.75 lb ae/ac at V10 followed by 0.54 lb ae/ac at V12 (Trt 5), and 0.75 lb ae/ac at V8 followed by 0.75 lb ae/ac at V10 (Trt 6). The test was set up as a split plot design with 2 row plots and the glyphosate treatments applied in strips over all of the replications. FIG. 1 illustrates AE % as averaged across all spray treatments across each test plot and event.

[3] = system: LH198DMSRR2 control (CMS germplasm with glyphosate tolerance); test: as above
From the text: as §1, §2, §3

[4] = system: transgenic corn event GHS2 (LH198 germplasm crossed to LH287); test: as above; conditions: Event GHS-2
From the text: as §1, §2, §3

[5] = system: transgenic corn event GHS1 (LH198 germplasm crossed to LH287); test: as above; conditions: Event GHS-1
From the text: as §1, §2, §3

[6] = Trt 4: 0.75 lb ae/ac at V8 followed by 0.54 lb ae/ac at V12
[7] = Trt 5: 0.75 lb ae/ac at V10 followed by 0.54 lb ae/ac at V12
[8] = Trt 6: 0.75 lb ae/ac at V8 followed by 0.75 lb ae/ac at V10

## O=C(O)CNCP(=O)(O)O [glyphosate, n-phosphonomethylglycine]
[1]; MON88017 male
  average yield of hybrid seed: 29.72 kg
[1]; nk603 male
  average yield of hybrid seed: 33.39 kg
[1]; female GHS1, average over MON88017 and NK603 male parents
  Average Wt (kg), yield of the hybrid seed: 29.72 kg
[1]; female GHS1, male MON88017
  Total wt (KG), yield of the hybrid seed: 25.9 kg and 31.5 kg
[1]; female GHS1, male NK603
  Total wt (KG), yield of the hybrid seed: 32.16 kg and 29.35 kg
[1]; female GHS2, average over MON88017 and NK603 male parents
  Average Wt (kg), yield of the hybrid seed: 33.39 kg
[1]; female GHS2, male MON88017
  Total wt (KG), yield of the hybrid seed: 27.5 kg and 35.74 kg
[1]; female GHS2, male NK603
  Total wt (KG), yield of the hybrid seed: 38.67 kg and 31.66 kg
[2]; Trt 1: 0.75 lb ae/ac at V8
  AE (%): ~5.9%
[2]; Trt 2: 0.75 lb ae/ac at V10
  AE (%): 0.1%
[2]; [6]
  AE (%): 0.0%
[2]; [7]
  AE (%): 0.0%
[2]; [8]
  AE (%): 0.0%
[3]; Trt 1: 0.75 lb ae/ac at V8
  AE (%): 0.1%
[3]; Trt 2: 0.75 lb ae/ac at V10
  AE (%): 0.1%
[3]; Trt 3: 0.54 lb ae/ac at V12
  AE (%): 0.1%
[3]; [6]
  AE (%): ~0.3%
[3]; [7]
  AE (%): ~0.3%
[3]; [8]
  AE (%): 0.0%
[4]; Trt 1: 0.75 lb ae/ac at V8
  AE (%): 0.4%
[4]; Trt 2: 0.75 lb ae/ac at V10
  AE (%): 0.0%
[4]; Trt 3: 0.54 lb ae/ac at V12
  AE (%): ~3.0%
[4]; [6]
  AE (%): 0.0%
[4]; [7]
  AE (%): 0.0%
[4]; [8]
  AE (%): 0.0%
[5]; Trt 2: 0.75 lb ae/ac at V10
  AE (%): 0.0%
[5]; Trt 3: 0.54 lb ae/ac at V12
  AE (%): ~12.1%
[5]; [6]
  AE (%): 0.0%
[5]; [7]
  AE (%): 0.0%
[5]; [8]
  AE (%): 0.0%
